Assay results from patent US20220296613A1, “FOOD-INDEPENDENT DOSING OF CV-10155 TO TREAT GABAA DISORDERS” (priority 2021, published 2022).
Like-named read-outs stand apart in the source and are kept apart here.

How the values were obtained:
in vivo = conditions: beagle, dog, iv, 1 mg/kg
[1] = HV, 60 mg evening dosing (n = 12)
[2] = humans, 60 mg, day 7 MAD, morning dosing, fasted
[3] = humans, 60 mg, evening, fed state, N = 9
[4] = humans, 60 mg, morning, fasted state, N = 9
[5] = humans, evening, fed state, subject a, dosing day 1
[6] = humans, evening, fed state, subject l, dosing day 1
[7] = humans, evening, fed state, subject o, dosing day 3
[8] = humans, evening, fed state, subject p, dosing day 2
[9] = humans, evening, fed state, subject p, dosing day 7
[10] = humans, evening, fed state, subject p, dosing day 8
[11] = humans, evening, fed state, subject v, dosing day 4

C[C@@]1(O)CC[C@@]2(C)[C@@H](CC[C@@H]3[C@@H]2CC[C@]2(C)[C@@H](C(=O)Cn4cc(C#N)cn4)CC[C@@H]32)C1 [CV-10155, 1-[2-[(3R,5S,8R,9S,10S,13S,14S,17S)-3-hydroxy-3,10,13-trimethyl-1,2,4,5,6,7,8,9,11,12,14,15,16,17-tetradecahydrocyclopenta[a]phenanthren-17-yl]-2-oxoethyl]pyrazole-4-carbonitrile]
Vd (in vivo): 1.92 L/kg
clearance (in vivo): 2.17 mL/min/kg
half-life (in vivo): 13.9 h
Dizziness, AEs % of subjects [1]: 16.7%
Headache, AEs % of subjects [1]: 8.3%
Somnolence, AEs % of subjects [1]: 8.3%
Racc AUC (human, in vivo, 60 mg): 1.84
ratio of Cmax/trough on day 7 (humans, 60 mg daily in the evening in a fed state): 3.47
ratio of Cmax/trough on day 7 (humans, 60 mg daily in the morning in a fasted state): 6.09
tolerability profile compared to PRAX-114 and Sage-217 (humans, 60 mg dosed in the evening): favorable tolerability profile compared to PRAX-114 and one comparable to that of Sage-217
exposure levels in humans vs 30 mg doses of Sage-217 (humans, 60 mg doses): higher exposure levels
absorption, morning fasted vs evening fed (humans, 60 mg orally once per day for seven days): no significant difference in absorption
Cmin [2]: 41.5 ng/mL
Ratio (Cmax/Cmin) [2]: 6.07
AE Back pain (Musculoskeletal and connective tissue disorders), # [3]: 1
AE Bloating (Gastrointestinal disorders), # [3]: 1
AE Dizziness (Nervous system disorders), # [3]: 1
AE Headache (Nervous system disorders), # [3]: 2
AE Sleepiness (Nervous system disorders), # (humans, 60 mg, evening, fed state, N = 9, printed on two separate lines): 1
AE Dizziness (Nervous system disorders), # [4]: 1
AE Feeling sleepy (Nervous system disorders), # [4]: 1
AE Feeling tired (General disorders and administration site conditions), # [4]: 2
AE Headache (Nervous system disorders), # [4]: 2
AE Sleepiness (Nervous system disorders), # [4]: 9
AE Tiredness (General disorders and administration site conditions), # [4]: 3
Somnolence: duration [5]: 10.62 h
Somnolence: severity [5]: Mild
Headache: duration [6]: 13.25 h
Headache: onset from dose [6]: pre-dose
Headache: severity [6]: Mild
Abdominal distension: duration [7]: 06.50 h
Abdominal distension: severity [7]: Mild
Dizziness: duration [8]: 20.50 h
Dizziness: severity [8]: Mild
Dizziness: duration [9]: 13.00 h
Dizziness: severity [9]: Mild
Headache: duration [10]: 14.50 h
Headache: severity [10]: Moderate
Back pain: duration [11]: 39.25 h
Back pain: severity [11]: Mild
adverse effects that interfere with sleeping (humans, oral administration in the evening to fed subjects): does not produce adverse effects that interfere with sleeping
